A word on the IC50: it is the concentration needed to halve the response being measured.

For experiment [1], the system named is promoter region of the human calcitonin gene (C1-3 reporter cells, TT human thyroid carcinoma). The experiment can be described thus: Calcitonin/Luciferase Reporter Gene Expression Assay (transcription activation ratio). It counts as cell-based. Conditions: C13, 12 h, C1-3 cells, active if TAR>1.5, read-out: TAR (transcription activation ratio, luciferase activity with test compound vs untreated control). In general terms: In a reporter assay the amount or activity of a reporter protein is the signal.

In experiment [2] the test system is calcitonin secreted by the C1-3 cell line (TT medullary thyroid carcinoma). The experiment can be described thus: Calcitonin Secretion/RIA Assay. Conditions: Homo sapiens, C13, C1-3 cells, active if Secretion Ratio>2.5. Type of experiment: cell-based. The protocol:
Calcitonin Secretion/RIA Assay Protocol
This assay was used to determine the ability of a compound to increase the amount of calcitonin secreted by the C1-3 cell line.
Cell Line: C1-3 (Parent Cell Line: TT-medullary thyroid carcinoma),
1. Glass tubes were labeled to include Total Count (TC), Nonspecific Binding (NSB), Maximum Binding (Bo), Standards, Controls and Patient Sera in duplicate.
2. […] of Standard Zero (Reagent D) was added to tubes 3 through 6 (NSB and Bo).
3. […] of Standards* (Reagents E-1) was added to tubes 7-16 as follows:
4. […] of Patient Serum 1 was added to tubes 21 and 22, Patient Serum 2 was added to tubes 23 and 24, etc.
5. […] of Reagent L (NSB Buffer) was added to tubes 3 and 4.
6. […] of Reagent A (Anti-Calcitonin) was added to all tubes except tubes 1 & 2 (TC) and tube 3 & 4 (NSB). All tubes were vortexed, covered with parafilm or foil and incubated 44±6 hours at 2-8° C.
7. […] of 125.vertline.Calcitonin (Reagent B) was added to all tubes. All tubes were vortexed, covered with parafilm or foil and incubated 22±3 hours at 2-8° C.
8. Reagent C (Anti-Goat Precipitant) was mixed gently but thoroughly by inverting the vial several times before use. 1 mL Reagent C was added to all tubes except 1 and 2 (TC). Tubes were vortexed and incubated 20 minutes at room temperature.
9. All tubes were centrifuged at 1300-1500×g for 15 minutes at 2-8° C.
10. Supernatant was decanted immediately after centrifugation taking care to leave the precipitate intact.
11. Tubes were counted 4 minutes or longer.
Secretion Ratio: Stimulation of calcitonin secretion is expressed as a ratio of secretion activity in the presence of test compound compared to the secretion activity in the untreated control: [formula]
Secretion Activity: Compounds were designated active if Secretion Ratio>2.5.

The subject of experiment [3] is Phosphodiesterase IV (PDE-IV) isolated from human U937 cells. The experiment can be described thus: Inhibition of Phosphodiesterase IV (PDE-IV) Isolated from Human U937 Cells. Type of experiment: biochemical. Conditions: for % Inhibition of PDE IV (normalized to rolipram): 1 μM [3H]-cAMP substrate; for IC50: linear regression of percent inhibition data bracketing 50% inhibition.

Experiment [4] concerns Ovarietomy Induced Osteopenia in Rats. The experiment can be described thus: Ovarietomy Induced Osteopenia in Rats (trabecular BMD). Conditions: Rattus norvegicus, 672 h; 30 mg/kg/day, ip; 4 weeks; n=8; * p < 0.005 vs. vehicle value (Examples 6, 12, 18); read-out: Percent Protection (trabecular BMD). It counts as in vivo.

On to `CCCCn1c(=O)n(CC=C(C)C)c(=O)c2c1ncn2S(=O)(=O)c1ccc(OC)c(OC)c1` [Example 17, 3-Butyl-7-(3,4-dimethoxy-benzenesulfonyl)-1-(3-methyl-but-2-enyl)-3,7-dihydro-purine-2,6-dione], for which the fold induction at 30 µM in experiment [1] came to 2.8; in experiment [2] it was 3.66. The “% Inhibition of PDE IV (normalized to rolipram)” value in experiment [3] amounted to 24%.
For the compound `CCCCn1c(=O)c2c(ncn2S(C)(=O)=O)n(CCCC)c1=O` [Example 1, 1,3-Dibutyl-7-methanesulfonyl-3,7-dihydro-purine-2,6-dione], the fold induction at 30 µM in experiment [1] came to 2.1. Moreover, the fold induction at 30 µM in experiment [2] turned out to be 4.65. In addition, in experiment [3], the IC50 is 25.2 µM and the “% Inhibition of PDE IV (normalized to rolipram)” value stood at 16%.
Consider `CCCCn1c(=O)c2c(ncn2S(=O)(=O)c2ccc(NO)cc2)n(CCCC)c1=O` [Example 8, 1,3-Dibutyl-7-(4-hydroxyamino-benzenesulfonyl)-3,7-dihydro-purine-2,6-dione], for which the fold induction at 30 µM was determined as 2 in experiment [1] and 5.4 in experiment [2]. Moreover, the inhibition in vivo at 30 mg/kg in experiment [4] was -2%. Besides, in experiment [3], the “% Inhibition of PDE IV (normalized to rolipram)” value is 82%.
Regarding `CCCCn1c(=O)c2c(ncn2S(=O)(=O)c2cc(C)c(Cl)cc2C)n(CCCC)c1=O` [Example 18, 1,3-Dibutyl-7-(4-chloro-2,5-dimethyl-benzenesulfonyl)-3,7-dihydro-purine-2,6-dione], the fold induction at 30 µM in experiment [1] was 2.5. Moreover, in experiment [2], the fold induction at 30 µM turned out to be 5.32. Also, in experiment [4], the inhibition in vivo at 30 mg/kg worked out at 52%. Also, in experiment [3], inhibition was half-maximal at 23.3 µM (IC50) and the “% Inhibition of PDE IV (normalized to rolipram)” value turned out to be 37%.
On to `CCCCn1c(=O)c2c(ncn2S(=O)(=O)c2cccc3ccccc23)n(CCCC)c1=O` [Example 7, 1,3-Dibutyl-7-(naphthalene-1-sulfonyl)-3,7-dihydro-purine-2,6-dione], for which the fold induction at 30 µM stood at 2.5 in experiment [1] and 4.5 in experiment [2]. Moreover, in experiment [4], the inhibition in vivo at 30 mg/kg turned out to be 37%. Besides, in experiment [3], the “% Inhibition of PDE IV (normalized to rolipram)” value came to 83%.
As to `CCCCn1c(=O)c2c(ncn2S(=O)(=O)CCCC)n(CCCC)c1=O` [Example 2, 7-(Butane-1-sulfonyl)-1,3-dibutyl-3,7-dihydro-purine-2,6-dione], the fold induction at 30 µM in experiment [1] turned out to be 2.2; in experiment [2], 4.65. The inhibition in vivo at 30 mg/kg in experiment [4] is 23%. Also, the “% Inhibition of PDE IV (normalized to rolipram)” value in experiment [3] was 97%.
As for `CCCCn1c(=O)c2c(ncn2S(=O)(=O)c2c(C)cc(C)cc2C)n(CCCC)c1=O` [Example 12, 1,3-Dibutyl-7-(2,4,6-trimethyl-benzenesulfonyl)-3,7-dihydro-purine-2,6-dione], the fold induction at 30 µM in experiment [1] came to 2.1. Moreover, in experiment [2], the fold induction at 30 µM came to 4.04. In experiment [4], the inhibition in vivo at 30 mg/kg was determined as 50%. Also, in experiment [3], the midpoint of inhibition, the IC50, lay at 6 µM and the “% Inhibition of PDE IV (normalized to rolipram)” value came out at 42%.
On to `CCCCn1c(=O)c2c(ncn2S(=O)(=O)C[C@@]23CC[C@@H](CC2=O)C3(C)C)n(CCCC)c1=O` [Example 10, 1,3-Dibutyl-7-(7,7-dimethyl-2-oxo-bicyclo[2.2. 1]hept-1-ylmethanesulfonyl)-3,7-dihydro-purine-2,6-dione], for which the fold induction at 30 µM in experiment [1] was 2; in experiment [2] it was 4.5. In addition, in experiment [4], the inhibition in vivo at 30 mg/kg is -10%. Further, in experiment [3], the “% Inhibition of PDE IV (normalized to rolipram)” value is on record as 89%.
For `CCCCn1c(=O)n(CC)c(=O)c2c1ncn2S(=O)(=O)c1ccc(C)cc1` [Example 16, 3-Butyl-1-ethyl-7-(toluene-4-sulfonyl)-3,7-dihydro-purine-2,6-dione], in experiment [1], the fold induction at 30 µM was 2.1. In addition, in experiment [3], the IC50 was found to be 6 µM and the “% Inhibition of PDE IV (normalized to rolipram)” value turned out to be 38%.
With `CCCCn1c(=O)c2c(ncn2S(=O)(=O)CCCCl)n(CCCC)c1=O` [Example 6, 1,3-Dibutyl-7-(3-chloro-propane-1-sulfonyl)-3,7-dihydro-purine-2,6-dione], the fold induction at 30 µM was determined as 2 in experiment [1] and 3.6 in experiment [2]. Also, the inhibition in vivo at 30 mg/kg in experiment [4] worked out at 47%. Also, the IC50 in experiment [3] was found to be 4.1 µM. In addition, the “% Inhibition of PDE IV (normalized to rolipram)” value in experiment [3] was 44%.
With `CCCCn1c(=O)c2c(ncn2S(=O)(=O)c2cccs2)n(CCCC)c1=O` [Example 5, 1,3-Dibutyl-7-(thiophene-2-sulfonyl)-3,7-dihydro-purine-2,6-dione], the fold induction at 30 µM in experiment [1] stood at 1.8. Moreover, in experiment [3], the “% Inhibition of PDE IV (normalized to rolipram)” value came to 52%.
In the case of `CCCCn1c(=O)c2c(ncn2S(=O)(=O)c2ccc(C(C)(C)C)cc2)n(CCCC)c1=O` [Example 13, 1,3-Dibutyl-7-(4-tert-butyl-benzenesulfonyl)-3,7-dihydro-purine-2,6-dione], the fold induction at 30 µM in experiment [1] came out at 1.8; in experiment [2] it was 5.1. Besides, the inhibition in vivo at 30 mg/kg in experiment [4] came to 13%. Also, in experiment [3], the “% Inhibition of PDE IV (normalized to rolipram)” value was determined as 66%.
Turning to `CCCCn1c(=O)c2c(nc(C)n2S(=O)(=O)c2ccc(C)cc2)n(CCCC)c1=O` [Example 20, 1,3-Dibutyl-8-methyl-7-(toluene-4-sulfonyl)-3,7-dihydro-purine-2,6-dione], the fold induction at 30 µM in experiment [1] was 2; in experiment [2], 3.23. In experiment [3], the “% Inhibition of PDE IV (normalized to rolipram)” value came to 58%.
In the case of `CCCCn1c(=O)c2c(ncn2S(=O)(=O)c2ccc(N(OC(C)=O)C(C)=O)cc2)n(CCCC)c1=O` [Example 11, N-Acetoxy-N-[4-(1,3-dibutyl-2,6-dioxo-1,2,3,6-tetrahydro-purine-7-sulfonyl)-phenyl]-acetamide], the fold induction at 30 µM in experiment [1] is 2.1; in experiment [2] it was 4.3.
With `CCCCn1c(=O)c2c(ncn2S(=O)(=O)c2cccc([N+](=O)[O-])c2)n(CCCC)c1=O` [Example 3, 1,3-Dibutyl-7-(3-nitro-benzenesulfonyl)-3,7-dihydro-purine-2,6-dione], the figures for the fold induction at 30 µM in experiment [1] and in experiment [2] were 2 and 1.65, respectively. The inhibition in vivo at 30 mg/kg in experiment [4] came out at 30%. For the same compound, in experiment [3], the “% Inhibition of PDE IV (normalized to rolipram)” value came out at 87%.
As to `CCCCn1c(=O)c2c(ncn2S(=O)(=O)c2ccc(OC)c(OC)c2)n(CCCC)c1=O` [Example 4, 1,3-Dibutyl-7-(3,4-dimethoxy-benzenesulfonyl)-3,7-dihydro-purine-2,6-dione], in experiment [1], the fold induction at 30 µM was found to be 2.5. Further, in experiment [2], the fold induction at 30 µM stood at 4.7. For the same compound, the inhibition in vivo at 30 mg/kg in experiment [4] was found to be 35%. Besides, in experiment [3], the midpoint of inhibition, the IC50, lay at 1.2 µM and the “% Inhibition of PDE IV (normalized to rolipram)” value turned out to be 41%.
Take `CCCCn1c(=O)n(CC=C(C)C)c(=O)c2c1ncn2S(=O)(=O)c1ccc(C)cc1` [Example 15, 3-Butyl-1-(3-methyl-but-2-enyl)-7-(toluene-4-sulfonyl)-3,7-dihydro-purine-2,6-dione]: the fold induction at 30 µM in experiment [1] is 2.1. Further, in experiment [2], the fold induction at 30 µM was 3.74. For the same compound, the inhibition in vivo at 30 mg/kg in experiment [4] was 15%. In experiment [3], the IC50 worked out at 5.2 µM and the “% Inhibition of PDE IV (normalized to rolipram)” value is 35%.
In the case of `CCCCn1c(=O)c2c(ncn2S(=O)(=O)c2c(C)noc2C)n(CCCC)c1=O` [Example 14, 1,3-Dibutyl-7-(3,5-dimethyl-isoxazole-4-sulfonyl)-3,7-dihydro-purine-2,6-dione], the fold induction at 30 µM in experiment [1] turned out to be 2.5; in experiment [2], 3.3. Further, in experiment [3], the “% Inhibition of PDE IV (normalized to rolipram)” value is 20%.
As for `CCCCn1c(=O)c2c(ncn2S(=O)(=O)Cc2ccccc2)n(CCCC)c1=O` [Example 9, 1,3-Dibutyl-7-phenylmethanesulfonyl-3,7-dihydro-purine-2,6-dione], in experiment [1], the fold induction at 30 µM was 2.3. In addition, the fold induction at 30 µM in experiment [2] is 5.1. Moreover, the inhibition in vivo at 30 mg/kg in experiment [4] was determined as 25%. Besides, in experiment [3], the IC50 came out at 3.2 µM and the “% Inhibition of PDE IV (normalized to rolipram)” value was determined as 93%.
Regarding `CCCCn1c(=O)c2c(nc(C)n2S(=O)(=O)CCCCl)n(CCCC)c1=O` [Example 19, 1,3-Dibutyl-7-(3-chloro-propane-1-sulfonyl)-8-methyl-3,7-dihydro-purine-2,6-dione], the figures for the fold induction at 30 µM in experiment [1] and in experiment [2] were 1.7 and 4.09, respectively. Besides, the “% Inhibition of PDE IV (normalized to rolipram)” value in experiment [3] came out at 5%.

The record behind these values is patent US6221874A, “Method of treating bone loss by stimulation of calcitonin” (American Home Products Corporation, priority 1999, dated 2001).
